Laboratory results from ChEMBL document CHEMBL1130365, “4-Sulfonamidoanilide tertiary carbinols: A novel series of potassium channel openers” (Bioorg Med Chem Lett, 1997).

Biological target: Sulfonylurea receptors; K-ATP channels (Homo sapiens, UniProt O60706+Q09428+Q14654+Q15842)
Test: Compound was measured in vitro for potassium channel opening (PCO) activity
Format: protein-complex assay, Cavia porcellus

Row | Compound | IC50
1 | CC(O)(C(=O)Nc1ccc(/C(=N\O)c2ccccc2)cc1)C(F)(F)F (mixture of isomers) | > 30 µM
2 | CC(O)(C(=O)Nc1ccc([C@@H](O)c2ccccc2)cc1)C(F)(F)F (mixture of isomers) | > 30 µM
3 | CC(O)(C(=O)Nc1ccc([C@H](O)c2ccccc2)cc1)C(F)(F)F (mixture of isomers) | > 30 µM
4 | CC(O)(C(=O)Nc1ccc(S(=O)(=O)N(c2ccccc2)c2ccccc2)cc1)C(F)(F)F (racemic) | > 30 µM
5 | CO/N=C(/c1ccccc1)c1ccc(NC(=O)C(C)(O)C(F)(F)F)cc1 (racemic) | > 30 µM
6 | CC(O)(C(=O)Nc1ccc(S(=O)(=O)Nc2ccccc2)cc1)C(F)(F)F (racemic) | > 30 µM
7 | CCN(CC)C(=O)c1ccc(NC(=O)C(C)(O)C(F)(F)F)cc1 (racemic) | > 30 µM
8 | CC(O)(C(=O)Nc1ccc(S(=O)(=O)N2CCSCC2)cc1)C(F)(F)F (racemic) | 4.58 µM
9 | CC(O)(C(=O)Nc1ccc(S(=O)(=O)N2CCOCC2)cc1)C(F)(F)F (racemic) | 5.85 µM
10 | CCC(C)N(C(C)CC)S(=O)(=O)c1ccc(NC(=O)C(C)(O)C(F)(F)F)cc1 (racemic) | > 30 µM
11 | CC(O)(C(=O)Nc1ccc(Sc2ccccc2)cc1)C(F)(F)F (racemic) | > 30 µM
12 | CC(O)(C(=O)Nc1ccc(-c2nn[nH]n2)cc1)C(F)(F)F (racemic) | > 30 µM
13 | CN(C)S(=O)(=O)c1ccc(NC(=O)C(C)(O)C(F)(F)F)cc1 (racemic) | 0.48 µM
14 | CCN(CC)S(=O)(=O)c1ccc(NC(=O)C(C)(O)C(F)(F)F)cc1 (racemic) | 0.81 µM
15 | CC(O)(C(=O)Nc1ccc(S(=O)(=O)N2CCCC2)cc1)C(F)(F)F (racemic) | 0.88 µM
16 | Cn1nnnc1-c1ccc(NC(=O)C(C)(O)C(F)(F)F)cc1 (racemic) | 30.9 µM
17 | CCCN(CCC)S(=O)(=O)c1ccc(NC(=O)C(C)(O)C(F)(F)F)cc1 (racemic) | 6.44 µM
18 | CC(C)CN(CC(C)C)S(=O)(=O)c1ccc(NC(=O)C(C)(O)C(F)(F)F)cc1 (racemic) | > 30 µM
19 | CC(O)(C(=O)Nc1ccc(S(=O)(=O)N2CCNCC2)cc1)C(F)(F)F (racemic) | > 30 µM
20 | CC(O)(C(=O)Nc1ccc(S(=O)(=O)N2CCCCC2)cc1)C(F)(F)F (racemic) | 9.25 µM
21 | CC(O)(C(=O)Nc1ccc(S(N)(=O)=O)cc1)C(F)(F)F (racemic) | 12.8 µM
